According to patent US9107415B2, “2-(substituted-phenyl)-cyclopentane-1,3-dione compounds, and derivatives thereof” (Syngenta Limited, priority 2011, dated 2015):

Experiments:
Format in all cases: in vivo
[1] = tested on: Amaranthus retroflexus (AMARE); test: Biological Example 1 glasshouse screen, pre-emergence herbicidal activity; details: application rate 250 g/ha, evaluated after 13 days
Protocol: (§1) Seeds of a variety of test species were sown in standard soil in pots. After cultivation for one day (pre-emergence) or after 8 days cultivation (post-emergence) under controlled conditions in a glasshouse (at 24/16°C., day/night; 14 hours light; 65% humidity), the plants were sprayed with an aqueous spray solution derived from the formulation of the “technical”(i.e. unformulated) active ingredient in acetone/water (50:50) solution containing 0.5% Tween 20 (polyoxyethylene sorbitan monolaurate, CAS Registry Number 9005-64-5). The test plants were then grown in a glasshouse under controlled conditions in a glasshouse (at 24/16°C., day/night; 14 hours light; 65% humidity) and watered twice daily. After 13 days for pre- or post-emergence, the test was evaluated visually, and an assessed percentage phytotoxicity score given for each herbicidal application on each plant/weed species (with 100%=total damage to plant; 0%=no damage to plant).
(§2) Test plants: Alopecurus myosuroides (ALOMY), Setaria faberi (SETFA), Echinochloa crus-galli (ECHCG), Solanum nigrum (SOLNI), Amaranthus retroflexus (AMARE) and Ipomoea hederacea (IPOHE). ALOMY, SETFA and ECHCG are grassy monocotyledonous weeds. SOLNI, AMARE and IPOHE are dicotyledonous (broadleaved) weeds.

[2] = tested on: Setaria faberi (SETFA); test: as above; details: application rate 250 g/ha, evaluated after 13 days
Protocol: as §1, §2

[3] = tested on: Solanum nigrum (SOLNI); test: as above; details: application rate 250 g/ha, evaluated after 13 days
Protocol: as §1, §2

[4] = tested on: Ipomoea hederacea (IPOHE); test: as above; details: application rate 250 g/ha, evaluated after 13 days
Protocol: as §1, §2

[5] = tested on: Alopecurus myosuroides (ALOMY); test: as above; details: 312 h, application rate 250 g/ha, evaluated after 13 days, read-out: ALOMY percentage phytotoxicity
Outline: (§3)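 Thirteen days after spraying, each species was given a visual phytotoxicity score (100% = total damage; 0% = none). Application was made one day post-sowing for pre-emergence and after 8 days' cultivation for post-emergence; conditions 24/16°C, 14 h photoperiod, 65% humidity.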

[6] = tested on: Echinochloa crus-galli (ECHCG); test: as above; details: 312 h, application rate 250 g/ha, evaluated after 13 days, read-out: ECHCG percentage phytotoxicity
Outline: as §3

[7] = tested on: Echinochloa crus galli, barnyardgrass (ECHCG); test: Biological Example 3 glasshouse screen, post-emergence herbicidal activity; details: 360 h, 15 DAA, no safener, read-out: ECHCG percentage phytotoxicity
Outline: (§4)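 Selectivity screen without safener: 12-day-old plants sprayed post-emergence with acetone/IF50-formulated compound plus 0.2% v/v X-77, kept in glasshouse, visually rated for % injury 15 days after application.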

[8] = tested on: Alopecurus myosuroides, blackgrass (ALOMY); test: as above; details: 360 h, 15 DAA, no safener, read-out: ALOMY percentage phytotoxicity
Outline: as §4

[9] = tested on: Lolium perenne, perennial ryegrass (LOLPE); test: as above; details: 360 h, 15 DAA, no safener, read-out: LOLPE percentage phytotoxicity
Outline: as §4

[10] = tested on: Avena fatua, wild oats (AVEFA); test: as above; details: 360 h, 15 DAA, no safener, read-out: AVEFA percentage phytotoxicity
Outline: as §4

[11] = tested on: Alopecurus myosuroides (ALOMY); test: Biological Example 1 glasshouse screen, post-emergence herbicidal activity; details: 312 h, application rate 250 g/ha, evaluated after 13 days, read-out: ALOMY percentage phytotoxicity
Outline: as §3

[12] = tested on: Echinochloa crus-galli (ECHCG); test: as above; details: 312 h, application rate 250 g/ha, evaluated after 13 days, read-out: ECHCG percentage phytotoxicity
Outline: as §3

[13] = tested on: Triticum aestivum, wheat (TRZAW); test: Biological Example 3 glasshouse screen, post-emergence, phytotoxicity on wheat; details: 360 h, 15 DAA, no safener, read-out: TRZAW percentage phytotoxicity
Outline: as §4

[14] = tested on: Alopecurus myosuroides (ALOMY); test: Biological Example 2 post-emergence herbicidal activity (comparative data); details: 312 h, read-out: ALOMY percentage phytotoxicity; for pest or weed control at 15.625 g/ha: 15.625 g/ha application rate; for pest or weed control at 62.5 g/ha: 62.5 g/ha application rate
Outline: (§5)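 Post-emergence spray after 8 days' glasshouse growth (24/16°C day/night, 14 h light, 65% humidity), using technical active ingredient in acetone/water (50:50) with 0.5% Tween 20. Visual phytotoxicity scored 13 days later, 0% = no damage to 100% = total damage.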

[15] = tested on: Echinochloa crus-galli (ECHCG); test: as above; details: 312 h, read-out: ECHCG percentage phytotoxicity; for pest or weed control at 15.625 g/ha: 15.625 g/ha application rate; for pest or weed control at 62.5 g/ha: 62.5 g/ha application rate
Outline: as §5

[16] = tested on: Setaria faberi (SETFA); test: as above
Outline: as §5

[17] = tested on: Amaranthus retroflexus (AMARE); test: Biological Example 1 glasshouse screen, post-emergence herbicidal activity; details: application rate 250 g/ha, evaluated after 13 days
Protocol: as §1, §2

[18] = tested on: Setaria faberi (SETFA); test: as above; details: application rate 250 g/ha, evaluated after 13 days
Protocol: as §1, §2

[19] = tested on: Solanum nigrum (SOLNI); test: as above; details: application rate 250 g/ha, evaluated after 13 days
Protocol: as §1, §2

[20] = tested on: Ipomoea hederacea (IPOHE); test: as above; details: application rate 250 g/ha, evaluated after 13 days
Protocol: as §1, §2

Structure (SMILES)	AMARE percentage phytotoxicity [1]	SEFTA percentage phytotoxicity [2]	SOLNI percentage phytotoxicity [3]	IPOHE percentage phytotoxicity [4]	pest or weed control at 250 g/ha [5]	pest or weed control at 250 g/ha [6]	pest or weed control at 250 g/ha [11]	pest or weed control at 250 g/ha [12]	pest or weed control at 15.625 g/ha [14]	pest or weed control at 62.5 g/ha [14]	pest or weed control at 15.625 g/ha [15]	pest or weed control at 62.5 g/ha [15]	SETFA percentage phytotoxicity ([16]; 15.625 g/ha application rate)	SETFA percentage phytotoxicity ([16]; 62.5 g/ha application rate)	AMARE percentage phytotoxicity [17]	SEFTA percentage phytotoxicity [18]	SOLNI percentage phytotoxicity [19]	IPOHE percentage phytotoxicity [20]	also measured
CC#Cc1cc(C)c(C2C(=O)C3C(C2=O)[C@H]2CC[C@@H]3O2)c(C)c1 (mixture of isomers) [Compound A-18, (1RS,2SR,6RS,7SR)-4-(2,6-dimethyl-4-prop-1-ynylphenyl)-10-oxatricyclo[5.2.1.0^2,6]decane-3,5-dione]	100%	100%	80%	80%	100%	100%	100%	100%	90%	100%	100%	100%	70%	90%	30%	100%	80%	80%	pest or weed control at 8 g/ha ([7]; application rate 8 g/ha): 80%; pest or weed control at 8 g/ha ([8]; application rate 8 g/ha): 70%; pest or weed control at 8 g/ha ([9]; application rate 8 g/ha): 80%; pest or weed control at 8 g/ha ([10]; application rate 8 g/ha): 30%; pest or weed control at 8 g/ha ([13]; application rate 8 g/ha): 40%
CC#Cc1cc(C)c(C2=C(O)CCC2=O)c(C)c1 [Compound A-1, 2-(2,6-Dimethyl-4-prop-1-ynylphenyl)cyclopentane-1,3-dione]	0%	80%	0%	0%	100%	100%	90%	100%	20%	80%	70%	100%	40%	60%	0%	70%	10%	30%	pest or weed control at 125 g/ha ([7]; application rate 125 g/ha): 80%; pest or weed control at 125 g/ha ([8]; application rate 125 g/ha): 70%; pest or weed control at 125 g/ha ([9]; application rate 125 g/ha): 50%; pest or weed control at 125 g/ha ([10]; application rate 125 g/ha): 0%; pest or weed control at 125 g/ha ([13]; application rate 125 g/ha): 40%
